In patent US9617250B2, “Pyridin-4-yl derivatives” (ACTELION PHARMACEUTICALS LTD., priority 2013, dated 2017):

Columns and labels:
[1] = system: circulating lymphocytes; assay: Assessment of in vivo efficacy: circulating lymphocytes after oral administration; design: species or system rat; settings: 6 h after oral administration of 10 mg/kg, normotensive male Wistar rats, compared to vehicle group
Experimental: The efficacy of the compounds of Formula (I) is assessed by measuring the circulating lymphocytes after oral administration of 3 to 30 mg/kg of a compound of Formula (I) to normotensive male Wistar rats. The animals are housed in climate-controlled conditions with a 12 h-light/dark cycle, and have free access to normal rat chow and drinking water. Blood is collected before and 3, 6 and 24 h after drug administration. Full blood is subjected to hematology using Advia Hematology system (Bayer Diagnostics, Zürich, Switzerland).
All data are presented as mean±SEM. Statistical analyses are performed by analysis of variance (ANOVA) using Statistica (StatSoft) and the Student-Newman-Keuls procedure for multiple comparisons. The null hypothesis is rejected when p<0.05.
Lymphocyte counts 6 h after oral administration have been measured for 2 out of 8 exemplified compounds and are in the range of −71% to −73% with an average of −72%.

[2] = target: human S1P3 receptor (Homo sapiens (Human), UniProt Q99500); assay: GTPγS assay to determine EC50 values, S1P3; assay type: biochemical; settings: comparison in words
human S1P3 receptor, sequence (Q99500 whole entry): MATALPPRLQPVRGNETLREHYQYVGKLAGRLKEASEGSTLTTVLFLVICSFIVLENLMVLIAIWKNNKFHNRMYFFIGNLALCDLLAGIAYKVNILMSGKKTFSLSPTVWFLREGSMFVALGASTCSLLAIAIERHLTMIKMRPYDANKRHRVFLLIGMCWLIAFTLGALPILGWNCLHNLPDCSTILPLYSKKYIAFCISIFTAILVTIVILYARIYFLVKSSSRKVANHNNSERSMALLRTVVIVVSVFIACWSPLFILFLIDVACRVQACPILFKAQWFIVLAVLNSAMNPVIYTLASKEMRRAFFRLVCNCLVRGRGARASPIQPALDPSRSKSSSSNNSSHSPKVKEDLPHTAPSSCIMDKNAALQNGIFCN

CCc1cc(-c2noc(-c3ccnc(C4CCCC4)c3)n2)cc(C)c1OC[C@@H](O)CNC(=O)CO [Example 8, (S)—N-(3-(2-ethyl-4-(5-(2-cyclopentylpyridin-4-yl)-1,2,4-oxadiazol-3-yl)-6-methylphenoxy)-2-hydroxypropyl)-2-hydroxyacetamide]
Lymphocyte counts [1]: −73%
potency on S1P3 receptor compared to closest analog in D1 [2]: significantly less potent

CCc1cc(-c2noc(-c3ccnc(CC(C)C)c3)n2)cc(C)c1OC[C@@H](O)CNC(=O)CO [Example 5, (S)—N-(3-(2-Ethyl-4-(5-(2-isobutylpyridin-4-yl)-1,2,4-oxadiazol-3-yl)-6-methylphenoxy)-2-hydroxypropyl)-2-hydroxyacetamide]
potency on S1P3 receptor compared to closest analog in D1 [2]: significantly less potent

CCc1cc(-c2noc(-c3ccnc(C(CC)CC)c3)n2)cc(C)c1OC[C@@H](O)CNC(=O)CO [Example 7, (S)—N-(3-(2-ethyl-4-(5-(2-(pentan-3-yl)-pyridin-4-yl)-1,2,4-oxadiazol-3-yl)-6-methylphenoxy)-2-hydroxypropyl)-2-hydroxyacetamide]
Lymphocyte counts [1]: −71%
potency on S1P3 receptor compared to closest analog in D1 [2]: significantly less potent

CCCc1cc(-c2nc(-c3cc(C)c(OC[C@@H](O)CNC(=O)CO)c(CC)c3)no2)ccn1 [Example 2, (S)—N-(3-(2-ethyl-4-(5-(2-propylpyridin-4-yl)-1,2,4-oxadiazol-3-yl)-6-methyl-phenoxy)-2-hydroxypropyl)-2-hydroxyacetamide]
potency on S1P3 receptor compared to closest analog in D1 [2]: clearly less potent
